The AC50 is the concentration at which the activity in the assay is half-maximal.

Where only a bound is given, the exact number is not on record here.

For 10 compounds, AC50 results are on record in ChEMBL document CHEMBL5291721, “A preclinical secondary pharmacology resource illuminates target-adverse drug reaction associations of marketed drugs” (Nat Commun, 2023).

Test [1] deals with T1, Alpha-2A adrenergic receptor (Homo sapiens, UniProt P08913).
T1 sequence (P08913 whole entry): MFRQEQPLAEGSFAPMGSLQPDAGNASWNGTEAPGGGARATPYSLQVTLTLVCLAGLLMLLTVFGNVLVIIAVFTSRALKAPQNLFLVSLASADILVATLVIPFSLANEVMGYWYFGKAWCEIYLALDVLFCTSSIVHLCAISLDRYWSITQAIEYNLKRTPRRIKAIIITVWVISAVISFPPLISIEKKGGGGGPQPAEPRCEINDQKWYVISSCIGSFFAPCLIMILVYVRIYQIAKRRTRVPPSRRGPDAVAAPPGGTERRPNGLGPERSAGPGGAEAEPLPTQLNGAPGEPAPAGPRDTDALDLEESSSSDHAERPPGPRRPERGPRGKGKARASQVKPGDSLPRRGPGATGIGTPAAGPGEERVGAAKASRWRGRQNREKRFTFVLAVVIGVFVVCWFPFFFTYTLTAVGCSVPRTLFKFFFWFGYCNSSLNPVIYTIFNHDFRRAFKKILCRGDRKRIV

The target of test [2] is Acetylcholinesterase (Homo sapiens, UniProt P22303). In kind it is functional.
Acetylcholinesterase, sequence (P22303 whole entry): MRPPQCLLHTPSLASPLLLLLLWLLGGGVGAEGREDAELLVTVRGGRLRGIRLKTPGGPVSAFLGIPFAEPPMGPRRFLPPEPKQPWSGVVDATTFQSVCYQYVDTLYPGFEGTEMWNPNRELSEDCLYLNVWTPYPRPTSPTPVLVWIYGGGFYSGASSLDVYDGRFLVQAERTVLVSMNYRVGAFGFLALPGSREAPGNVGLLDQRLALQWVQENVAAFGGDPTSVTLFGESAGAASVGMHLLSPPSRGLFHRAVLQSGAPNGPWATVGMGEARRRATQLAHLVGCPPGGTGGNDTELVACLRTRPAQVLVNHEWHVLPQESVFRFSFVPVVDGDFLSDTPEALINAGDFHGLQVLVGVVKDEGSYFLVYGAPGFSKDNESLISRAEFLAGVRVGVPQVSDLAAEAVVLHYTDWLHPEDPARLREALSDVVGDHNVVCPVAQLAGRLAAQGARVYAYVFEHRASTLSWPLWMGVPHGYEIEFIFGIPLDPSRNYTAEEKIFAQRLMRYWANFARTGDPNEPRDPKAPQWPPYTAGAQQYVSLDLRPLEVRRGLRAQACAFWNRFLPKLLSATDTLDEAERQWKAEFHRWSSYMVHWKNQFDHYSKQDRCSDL
Test [3] addresses Prostaglandin G/H synthase 1 (Homo sapiens, UniProt P23219). It is filed as functional.
Test [4] has as its target T2, Thromboxane A2 receptor (Homo sapiens, UniProt P21731).
T2 sequence (P21731 whole entry): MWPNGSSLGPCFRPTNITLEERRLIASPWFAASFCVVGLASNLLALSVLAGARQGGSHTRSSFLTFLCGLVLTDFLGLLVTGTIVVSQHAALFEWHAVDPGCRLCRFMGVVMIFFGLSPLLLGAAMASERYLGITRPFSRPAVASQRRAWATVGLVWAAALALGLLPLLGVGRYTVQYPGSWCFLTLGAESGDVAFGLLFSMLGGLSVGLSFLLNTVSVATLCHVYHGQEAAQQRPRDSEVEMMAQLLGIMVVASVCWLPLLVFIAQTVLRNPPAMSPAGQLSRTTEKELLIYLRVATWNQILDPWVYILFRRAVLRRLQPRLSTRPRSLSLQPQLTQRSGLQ
In kind it is functional, cell-based.

The target of test [5] is Mu-type opioid receptor (Homo sapiens, UniProt P35372).
Mu-type opioid receptor, sequence (P35372 whole entry): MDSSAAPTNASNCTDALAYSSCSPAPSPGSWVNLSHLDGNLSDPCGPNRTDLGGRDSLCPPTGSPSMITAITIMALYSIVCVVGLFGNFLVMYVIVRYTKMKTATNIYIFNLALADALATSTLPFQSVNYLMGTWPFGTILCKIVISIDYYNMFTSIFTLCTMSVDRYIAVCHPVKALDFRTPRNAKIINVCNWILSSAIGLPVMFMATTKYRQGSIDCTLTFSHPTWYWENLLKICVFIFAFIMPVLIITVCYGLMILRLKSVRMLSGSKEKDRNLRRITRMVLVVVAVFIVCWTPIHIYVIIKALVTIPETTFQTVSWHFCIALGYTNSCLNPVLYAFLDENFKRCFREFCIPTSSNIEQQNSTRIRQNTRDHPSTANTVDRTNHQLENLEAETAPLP
The target in test [6] is Prothrombin (Homo sapiens, UniProt P00734). In kind it is functional.
The target in test [7] is cGMP-inhibited 3',5'-cyclic phosphodiesterase 3A (Homo sapiens, UniProt Q14432). It is filed as functional.
cGMP-inhibited 3',5'-cyclic phosphodiesterase 3A, sequence (Q14432 whole entry): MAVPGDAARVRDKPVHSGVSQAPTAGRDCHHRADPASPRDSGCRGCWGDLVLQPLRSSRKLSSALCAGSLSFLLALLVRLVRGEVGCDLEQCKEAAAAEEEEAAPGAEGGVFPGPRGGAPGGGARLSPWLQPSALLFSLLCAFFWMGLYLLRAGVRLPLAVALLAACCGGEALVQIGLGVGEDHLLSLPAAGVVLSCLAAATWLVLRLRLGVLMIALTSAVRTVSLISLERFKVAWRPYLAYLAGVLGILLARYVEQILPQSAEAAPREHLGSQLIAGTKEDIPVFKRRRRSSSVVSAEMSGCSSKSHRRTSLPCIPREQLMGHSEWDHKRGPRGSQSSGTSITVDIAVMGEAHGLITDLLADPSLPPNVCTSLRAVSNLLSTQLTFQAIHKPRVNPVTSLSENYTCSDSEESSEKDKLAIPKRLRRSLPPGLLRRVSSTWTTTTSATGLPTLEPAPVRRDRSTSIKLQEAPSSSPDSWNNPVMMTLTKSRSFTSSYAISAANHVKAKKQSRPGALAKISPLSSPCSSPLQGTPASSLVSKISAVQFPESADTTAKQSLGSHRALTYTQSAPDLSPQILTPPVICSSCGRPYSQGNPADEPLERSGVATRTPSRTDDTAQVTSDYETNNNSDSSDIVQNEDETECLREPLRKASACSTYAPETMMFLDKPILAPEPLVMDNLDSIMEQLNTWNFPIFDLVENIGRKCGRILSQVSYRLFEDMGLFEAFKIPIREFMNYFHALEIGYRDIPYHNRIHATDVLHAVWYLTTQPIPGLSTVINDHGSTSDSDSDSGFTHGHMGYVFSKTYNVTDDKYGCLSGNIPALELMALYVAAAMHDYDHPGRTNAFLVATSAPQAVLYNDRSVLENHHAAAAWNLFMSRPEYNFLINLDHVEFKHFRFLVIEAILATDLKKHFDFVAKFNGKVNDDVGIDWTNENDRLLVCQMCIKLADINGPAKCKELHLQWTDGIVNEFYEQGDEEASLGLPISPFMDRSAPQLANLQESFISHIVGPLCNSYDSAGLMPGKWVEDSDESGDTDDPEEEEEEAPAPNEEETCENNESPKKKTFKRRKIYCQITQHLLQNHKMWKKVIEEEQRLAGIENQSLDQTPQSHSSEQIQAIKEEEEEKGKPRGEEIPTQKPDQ
Test [8] concerns the target T3, Muscarinic acetylcholine receptor M2 (Homo sapiens, UniProt P08172).
T3 sequence (P08172 whole entry): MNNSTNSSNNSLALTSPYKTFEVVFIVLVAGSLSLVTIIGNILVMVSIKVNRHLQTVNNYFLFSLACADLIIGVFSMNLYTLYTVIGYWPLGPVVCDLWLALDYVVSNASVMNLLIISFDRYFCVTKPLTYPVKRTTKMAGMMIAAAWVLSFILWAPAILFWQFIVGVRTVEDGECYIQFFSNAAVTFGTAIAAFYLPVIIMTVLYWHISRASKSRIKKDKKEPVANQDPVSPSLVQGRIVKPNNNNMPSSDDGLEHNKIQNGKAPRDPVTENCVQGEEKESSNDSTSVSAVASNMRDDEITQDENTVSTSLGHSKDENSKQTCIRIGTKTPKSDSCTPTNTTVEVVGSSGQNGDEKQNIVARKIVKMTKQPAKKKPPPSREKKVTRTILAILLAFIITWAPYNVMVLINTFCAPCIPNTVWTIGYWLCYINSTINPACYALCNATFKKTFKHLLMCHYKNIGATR

The target of test [9] is D(1A) dopamine receptor (Homo sapiens, UniProt P21728).
D(1A) dopamine receptor, sequence (P21728 whole entry): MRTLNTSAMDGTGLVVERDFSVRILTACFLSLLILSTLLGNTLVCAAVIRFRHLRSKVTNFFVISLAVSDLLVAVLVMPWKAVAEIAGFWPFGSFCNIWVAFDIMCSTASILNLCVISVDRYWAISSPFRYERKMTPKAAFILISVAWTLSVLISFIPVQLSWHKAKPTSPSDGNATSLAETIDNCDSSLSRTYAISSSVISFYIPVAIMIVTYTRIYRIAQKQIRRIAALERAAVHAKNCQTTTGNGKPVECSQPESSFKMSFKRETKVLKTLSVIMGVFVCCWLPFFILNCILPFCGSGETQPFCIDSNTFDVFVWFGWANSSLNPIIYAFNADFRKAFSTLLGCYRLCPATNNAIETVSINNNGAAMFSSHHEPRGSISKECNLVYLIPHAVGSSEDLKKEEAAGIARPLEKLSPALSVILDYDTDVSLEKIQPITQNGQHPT
The target in test [10] is Histamine H3 receptor (Homo sapiens, UniProt Q9Y5N1).
Histamine H3 receptor, sequence (Q9Y5N1 whole entry): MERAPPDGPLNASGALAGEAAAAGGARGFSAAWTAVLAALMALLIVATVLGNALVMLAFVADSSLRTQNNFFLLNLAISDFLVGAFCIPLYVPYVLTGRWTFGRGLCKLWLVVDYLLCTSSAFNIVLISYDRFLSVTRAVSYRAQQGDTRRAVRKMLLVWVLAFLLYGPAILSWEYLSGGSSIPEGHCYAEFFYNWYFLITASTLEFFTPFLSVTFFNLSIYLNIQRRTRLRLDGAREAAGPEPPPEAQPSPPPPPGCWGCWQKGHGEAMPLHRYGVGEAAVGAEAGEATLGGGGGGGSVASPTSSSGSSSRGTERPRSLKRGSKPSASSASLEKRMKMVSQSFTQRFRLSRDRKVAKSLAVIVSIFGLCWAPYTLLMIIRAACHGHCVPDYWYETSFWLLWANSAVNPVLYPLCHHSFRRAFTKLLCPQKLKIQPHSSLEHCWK
For test [11], the target named is Sodium-dependent serotonin transporter (Homo sapiens, UniProt P31645).
Sodium-dependent serotonin transporter, sequence (P31645 whole entry): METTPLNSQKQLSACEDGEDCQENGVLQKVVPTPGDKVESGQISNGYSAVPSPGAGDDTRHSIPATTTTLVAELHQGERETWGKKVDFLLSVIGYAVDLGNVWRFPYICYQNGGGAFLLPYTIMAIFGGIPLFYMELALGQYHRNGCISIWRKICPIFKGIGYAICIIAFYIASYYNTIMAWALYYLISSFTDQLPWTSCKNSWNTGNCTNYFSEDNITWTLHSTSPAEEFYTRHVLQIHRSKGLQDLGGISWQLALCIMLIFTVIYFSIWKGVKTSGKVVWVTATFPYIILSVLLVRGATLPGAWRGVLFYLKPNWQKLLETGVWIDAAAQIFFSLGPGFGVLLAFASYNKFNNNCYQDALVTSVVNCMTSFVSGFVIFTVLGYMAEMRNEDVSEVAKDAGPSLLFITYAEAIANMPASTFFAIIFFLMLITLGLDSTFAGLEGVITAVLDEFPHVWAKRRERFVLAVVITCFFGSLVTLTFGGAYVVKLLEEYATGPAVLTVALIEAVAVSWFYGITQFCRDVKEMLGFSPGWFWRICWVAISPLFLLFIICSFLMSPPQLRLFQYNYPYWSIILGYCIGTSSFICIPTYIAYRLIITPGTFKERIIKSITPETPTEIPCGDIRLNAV
For test [12], the target named is T2, Thromboxane A2 receptor. In kind it is functional, cell-based. This is another data set of the same source.
For test [13], the target named is Sodium-dependent dopamine transporter (Homo sapiens, UniProt Q01959).
For test [14], the target named is Voltage-gated inwardly rectifying potassium channel KCNH2 (Homo sapiens, UniProt Q12809). It is filed as functional. Particulars: read-out: AC50.
Voltage-gated inwardly rectifying potassium channel KCNH2, sequence (Q12809 whole entry): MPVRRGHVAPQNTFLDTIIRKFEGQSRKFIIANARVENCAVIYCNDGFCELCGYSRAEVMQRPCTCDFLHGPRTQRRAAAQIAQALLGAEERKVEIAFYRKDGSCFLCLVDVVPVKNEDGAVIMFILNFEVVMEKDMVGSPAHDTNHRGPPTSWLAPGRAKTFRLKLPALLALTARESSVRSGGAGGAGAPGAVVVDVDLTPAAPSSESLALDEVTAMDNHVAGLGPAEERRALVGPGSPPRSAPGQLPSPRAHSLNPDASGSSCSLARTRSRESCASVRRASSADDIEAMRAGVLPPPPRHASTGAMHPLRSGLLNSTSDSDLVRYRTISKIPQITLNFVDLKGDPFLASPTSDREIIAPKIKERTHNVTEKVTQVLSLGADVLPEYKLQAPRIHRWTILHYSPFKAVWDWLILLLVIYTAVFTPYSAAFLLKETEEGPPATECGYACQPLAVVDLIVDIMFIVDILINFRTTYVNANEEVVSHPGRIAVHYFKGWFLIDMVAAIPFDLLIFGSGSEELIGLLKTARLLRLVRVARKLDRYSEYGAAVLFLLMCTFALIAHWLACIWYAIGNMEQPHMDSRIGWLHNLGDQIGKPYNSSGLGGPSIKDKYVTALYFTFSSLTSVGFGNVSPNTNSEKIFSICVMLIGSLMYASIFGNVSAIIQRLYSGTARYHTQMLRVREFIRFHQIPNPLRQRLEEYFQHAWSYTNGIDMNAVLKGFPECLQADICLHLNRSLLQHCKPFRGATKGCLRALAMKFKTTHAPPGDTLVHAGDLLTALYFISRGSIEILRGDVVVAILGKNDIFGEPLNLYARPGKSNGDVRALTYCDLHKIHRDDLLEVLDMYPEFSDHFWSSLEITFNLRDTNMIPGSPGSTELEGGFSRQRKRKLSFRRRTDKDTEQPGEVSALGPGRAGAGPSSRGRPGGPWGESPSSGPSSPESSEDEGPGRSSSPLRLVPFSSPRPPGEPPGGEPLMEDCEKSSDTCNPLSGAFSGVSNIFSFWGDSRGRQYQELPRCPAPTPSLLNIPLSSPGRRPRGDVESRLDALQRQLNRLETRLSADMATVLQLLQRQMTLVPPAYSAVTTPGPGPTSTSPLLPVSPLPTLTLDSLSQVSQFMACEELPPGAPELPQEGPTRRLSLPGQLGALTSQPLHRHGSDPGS
In test [15] the target is T4, Alpha-1A adrenergic receptor (Homo sapiens, UniProt P35348).
T4 sequence (P35348 whole entry): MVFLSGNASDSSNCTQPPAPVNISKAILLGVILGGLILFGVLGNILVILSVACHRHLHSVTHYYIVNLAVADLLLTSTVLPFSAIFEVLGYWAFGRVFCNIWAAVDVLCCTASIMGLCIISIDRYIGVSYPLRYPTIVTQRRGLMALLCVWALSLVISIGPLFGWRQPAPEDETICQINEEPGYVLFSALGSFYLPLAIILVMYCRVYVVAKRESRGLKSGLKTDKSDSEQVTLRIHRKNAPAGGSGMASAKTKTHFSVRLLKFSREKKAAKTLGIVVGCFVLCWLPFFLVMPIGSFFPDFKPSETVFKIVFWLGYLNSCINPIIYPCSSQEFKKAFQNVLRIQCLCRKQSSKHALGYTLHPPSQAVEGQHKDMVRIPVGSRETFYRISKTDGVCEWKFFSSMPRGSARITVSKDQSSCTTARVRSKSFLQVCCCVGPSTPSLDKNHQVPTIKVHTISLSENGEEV
In kind it is functional, cell-based.
Note: assay procedure not described here.

Turning to `CCCCCCCC(=O)N[C@H](CN1CCCC1)[C@H](O)c1ccc2c(c1)OCCO2`, the AC50 is over 30 µM in test [1]; over 30 µM in [2]; 10.1 µM in test [3]; over 30 µM in [4]; 14.1 µM in [5]; over 30 µM in test [6]. Also, the AC50 in [7], in [8], in [9], in test [10], in test [11] and in test [12] was over 30 µM in each case. In test [13], this compound showed an AC50 of over 30 µM.

For the compound `O=C(Nc1nc(-c2cc(Cl)cs2)c(N2CCN(C3CCCCC3)CC2)s1)c1cnc(N2CCC(C(=O)O)CC2)c(Cl)c1` [AVATROMBOPAG], the AC50 in [1] was over 30 µM; in [2], over 30 µM; in [3], over 30 µM; in test [4] it was over 10 µM; in [5], over 30 µM; in test [6] it was over 30 µM. Further, the AC50 in test [7] was over 30 µM; in [8] it was over 30 µM; in [9], over 30 µM; in [10] it was over 30 µM; in [11], over 30 µM; in [14] it was 12.4 µM. Besides, the AC50 in [12] and in test [13] was over 30 µM each time.

Regarding `Oc1c(I)cc(Cl)c2cccnc12` [CLIOQUINOL], the concentration at half-maximal activity (AC50) was over 30 µM in test [1]; over 30 µM in test [2]; over 30 µM in test [3]; over 10 µM in [4]; over 30 µM in test [5]; over 30 µM in test [6]. The AC50 in test [7], in test [8], in test [9], in [10], in test [11] and in [14] was over 30 µM throughout. In addition, the AC50 in test [12] and in test [13] was over 30 µM in each case.

For the compound `OC(CCCN1CCCCC1)(c1ccccc1)c1ccccc1` [DIPHENIDOL], the AC50 in test [1] is over 30 µM; in test [15], over 30 µM; in test [2], over 30 µM; in test [3] it was over 30 µM; in test [4], over 30 µM; in [5], 25.2 µM. The AC50 was over 30 µM in test [6]; over 30 µM in [7]; 0.944 µM in [8]; 12.5 µM in [9]; over 30 µM in test [10]; 16 µM in test [14]. Besides, the AC50 in test [12] and in test [13] was over 30 µM in each case.

On to `CCn1cc(C(=O)O)c(=O)c2cc(F)c(N3CCNCC3)nc21` [ENOXACIN], for which the AC50 in test [1], in test [15], in [2], in [3], in [4] and in test [5] was over 30 µM in each case. In addition, the AC50 in [6], in test [7], in [8], in test [9], in test [10] and in test [14] was over 30 µM in each case. The AC50 in test [12] and in [13] was over 30 µM in each case.

Consider `CCC(=O)O[C@@H]1CC(=O)O[C@H](C)C/C=C/C=C/[C@H](OC(C)=O)[C@H](C)C[C@H](CC=O)[C@H](O[C@@H]2O[C@H](C)[C@@H](O[C@H]3C[C@@](C)(OC(C)=O)[C@@H](OC(=O)CC)[C@H](C)O3)[C@H](N(C)C)[C@H]2O)[C@H]1OC` [MIOCAMYCIN], for which the AC50 in test [1], in test [2], in test [3], in test [4], in test [5] and in [6] was over 30 µM in each case. Besides, the half-maximal activity concentration (AC50) in test [7], in test [8], in test [9], in test [10], in [11] and in test [12] was over 30 µM throughout. This compound returned an AC50 in test [13] of over 30 µM.

Take `COCCCOc1ccnc(C[S+]([O-])c2nc3ccccc3[nH]2)c1C` (stereo not drawn) [RABEPRAZOLE]: the AC50 in [1] is over 30 µM; in [15], over 30 µM; in test [2] it was 16.7 µM; in test [3] it was 0.71 µM; in test [4] it was over 30 µM; in test [5] it was 7.93 µM. For the same compound, the half-maximal activity concentration (AC50) is over 30 µM in [6]; over 30 µM in test [7]; over 30 µM in test [8]; over 30 µM in test [9]; over 30 µM in [10]; 5.33 µM in test [14]. Besides, the AC50 in test [12] and in test [13] was over 30 µM in each case.

For the compound `O=C(Oc1ccccc1C(=O)O)c1ccccc1O` [SALSALATE], the AC50 in test [1], in [15], in test [2], in test [3], in test [4] and in test [5] was over 30 µM throughout. The AC50 in test [6], in test [7], in test [8], in test [9], in test [10] and in test [14] was over 30 µM each time. In addition, the AC50 in test [12] and in test [13] was over 30 µM each time.

Regarding `c1ccc2[nH]c(-c3cscn3)nc2c1` [THIABENDAZOLE], the half-maximal activity concentration (AC50) in test [1], in test [15], in test [2], in test [3], in test [4] and in [5] was over 30 µM each time. Besides, the AC50 in [6], in test [7], in [8], in [9], in [10] and in test [14] was over 30 µM throughout. Further, the AC50 in test [12] and in test [13] was over 30 µM each time.

For the compound `C[C@@H]1C[C@H]2[C@@H]3CCC4=CC(=O)C=C[C@]4(C)C3=CC[C@]2(C)[C@H]1C(=O)CN1CCN(c2cc(N3CCCC3)nc(N3CCCC3)n2)CC1` [TIRILAZAD], the AC50 in [1] was 17.3 µM; in test [15], over 30 µM; in [2] it was over 30 µM; in test [3], 3.8 µM; in test [4], over 30 µM; in test [5], over 30 µM. Also, the AC50 is over 30 µM in test [6]; over 30 µM in test [7]; 0.432 µM in test [8]; 7.07 µM in test [9]; over 30 µM in test [10]; 1.9 µM in test [14]. In addition, the AC50 in test [12] and in [13] was over 30 µM throughout.
